Reference: US6774128B2, “Methods for prevention and treatment of gastrointestinal disorders” (Johns Hopkins University, priority 2000, dated 2004)
“Also recorded” adds a separate entry of the source. Where two headings read alike, the source gives them in different places.

Tests used:
[1] = tested on: pyloric sphincter muscle; test: Organ bath physiology: EFS-evoked NO-dependent NANC relaxation of ex vivo pylori; parameters: species or system mouse
[2] = tested on: STZ-diabetic and NOD-diabetic mice; test: Gastric emptying of phenol red-labeled liquid meal in diabetic mice; assay type: in vivo, mouse; details: for t½ for gastric emptying: 1 mg/kg intraperitoneal 20 minutes before; for gastric emptying (20% dextrose): NOD-diabetic and STZ-diabetic mice after 1 week of insulin treatment
Procedure: Animals. Mice were allowed free access to food and water except when fasted, as indicated for experiments. Wild-type mice (C57BL/6) were purchased from The Jackson Laboratory (Bar Harbor, Me., USA). nNOS^−/− mice were obtained following targeted genomic deletion of nNOS (15) and have the genetic background of C57BL/6 mice (28). For STZ-induced diabetes, adult male mice (C57BL/6) were injected intraperitoneally with a single dose of STZ (200 mg/kg in 0.1 M sodium citrate) as described elsewhere (29), whereas control mice were injected with an equal volume of vehicle (sodium citrate). STZ-treated mice were used for experiments 8 weeks after STZ injection. […]; Boehringer Mannheim, Indianapolis, Ind., USA). The average serum glucose levels for wild-type animals and the STZ diabetic mice 8 weeks after injection were 99 mg/dL and 388 mg/dL, respectively (Table 1). Adult male nonobese diabetic (NOD/LtJ [NOD]) mice were obtained at 8-10 weeks of age (The Jackson Laboratory). Serum glucose levels were also monitored weekly with the Accu-Check monitor. NOD-prediabetic mice and NOD-diabetic mice had average serum glucose levels of 88 mg/dL and 232 mg/dL, respectively (Table 1). For the indicated experiments, NOD-prediabetic mice were sacrificed at 10 weeks of age after serum glucose levels were confirmed, whereas NOD-diabetic mice were sacrificed at 30-32 weeks of age after elevated serum glucose levels were confirmed.
(§1) Insulin treatment was given using LinBit, a sustained-release insulin implant (0.1 U/d/implant; LinShin Canada Inc., Toronto, Ontario, Canada). After brief anesthesia with diethyl echer, the insulin implant was quickly immersed in Betadine solution (McKesson, San Francisco, Calif., USA) and implanted subcutaneously with a 12-gauge needle. Serum glucose levels were monitored, and insulin-treated animals were used for experiments after 12 hours or 1 week of insulin therapy, as indicated. The serum glucose levels after 1 week of insulin treatment are shown (Table 1), as are the serum glucose levels after 12 hours of insulin treatment (see FIG. 2b).
As indicated, insulin-treated diabetic mice were treated with the nNOS inhibitor 7-nitroindazole (7-NI; Lancaster, Wyndham, N.H., USA) by two intraperitoneal injections (50 mg/kg) of a suspension in sesame oil (Sigma Chemical Co., St. Louis, Miss., USA) given 24 hours and 30 minutes before determination of gastric emptying. […] For all experiments, control animals were similarly injected with vehicle (either sesame oil or water).
Gastric emptying. Gastric emptying of liquids was determined as described previously (30). For any experiments using diabetic mice, serum glucose levels of all animals were confirmed immediately before monitoring gastric emptying. Adult mice were sedated briefly (<30 seconds) with diethyl ether. Mice fully recovered from sedation in less than 1 minute. During brief sedation, oral-gastric intubation was accomplished with a 21-gauge needle fitted with a thin plastic catheter (8 cm in length). Then, 0.2 mL of 1 mg/mL phenol red-labeled 20% dextrose (or other solution, if indicated) was instilled into the stomach. Mice were placed in clean, empty cages until the time of sacrifice. At the indicated time (0-120 minutes), mice were rapidly sacrificed by cervical dislocation and the stomach was excised. The duodenum was ligated, followed by transverse resection of the lower esophagus, and the stomach was removed from the body cavity. Excised stomachs were homogenized with a polytron (Brinkmann, Westbury, N.Y., USA) homogenizer in 3 mL of 95% ethyl alcohol. After centrifugation (40,000 g for 20 minutes), an aliquot of the supernatant was used to determine phenol red content. Standard curve was constructed and found to be linear over the range of 1-20 microgram of phenol red. Phenol red content was monitored at 410 nm, at which a single peak of absorbance was observed when extracted with ethanol. […]

[3] = tested on: nNOS mRNA; test: In situ hybridization of nNOS mRNA in pyloric myenteric neurons; assay type: in vivo, mouse; details: NOD-diabetic and STZ-diabetic mice, insulin treatment (1 week)
Procedure: as §1
In situ hybridization. In situ hybridization for nNOS was performed as described previously (31,32).

[4] = tested on: nNOS; test: Western blot analysis of nNOS protein expression in intestinal tissues; assay type: in vivo, mouse; details: NOD-diabetic mice, insulin treatment (1 week)
Procedure: as §1
Western blot analysis. Mouse tissues were homogenized in ice-cold buffer containing 50 mM Tris (pH 7.4, 25° C.), 100 mM NaCl, 1 mM EGTA, and protease inhibitors (4 microgram/mL leupeptin, 2 microgram/mL antipain, 2 microgram/mL pepstatin, and 1 mM PMSF). After centrifugatin (1.5 minutes, 16,000 g), the supernatants were collected and protein content was determined (Coomassie protein assay; Pierce Chemical Co., Rockville, Ill., USA). Samples (50 microgram protein) were subjected to SDS-PAGE (4-12% gradient gel; Bis-tris NuPage; Novex, San Diego, Calif., USA) and then transferred to PVDF membranes (Immobilon-P; Millipore Corp., Bedford, Mass., USA). […]

[5] = tested on: nNOS; test: Immunohistochemistry of nNOS protein expression in pyloric myenteric neurons; assay type: in vivo, mouse; details: NOD-diabetic and STZ-diabetic mice, insulin treatment (1 week)
Procedure: as §1
Immunohistochemistry. For nondiabetic studies, wild-type animals or 10-week-old NOD-prediabetic animals were used. For diabetic studies, we used animals 8 weeks after STZ injection (STZ diabetic) or 30-week-old NOD mice (NOD-diabetic). Pylori or other tissues were dissected and immediately imbedded (Tissue-Tek OCT 4583; Sakura Finetek Inc., Torrence, Calif., USA) and placed in dry ice and allowed to freeze. Routine sections (10 micrometer) were cut using a cryostat (−19° C.; Leica Microm, Allendale, N.J., USA). For immunostaining, slides were fixed for 5 minutes in 4.0% paraformaldehyde, washed in PBS, and permeablized with 0.1% Triton X-100 in PBS. […]

[6] = wild-type pylori precontracted with 0.1 micromolar SP, inhibitor 0.1 mM

O=[N+]([O-])c1cccc2cn[nH]c12 [Compound 7-NI, 7-nitroindazole]
NANC relaxation ([1]; pylori of insulin-treated diabetic mice, in the presence of 0.1 mM 7-NI): completely blocked
EFS-evoked NANC relaxation [1, 6]: blocked
gastric emptying at 30 minutes ([2]; insulin-treated (1 week) STZ-diabetic and NOD-diabetic mice, 7-NI 50 mg/kg intraperitoneal, 24 hours and 30 minutes before): reverses the restoration of normal gastric emptying; also recorded: delays gastric emptying

NC(=NCCC[C@H](N)C(=O)O)N[N+](=O)[O-] [L-NNA, N-nitro-[.-arginine]
EFS-evoked NANC relaxation [1, 6]: blocked

CCCc1nn(C)c2c(=O)[nH]c(-c3cc(S(=O)(=O)N4CCN(C)CC4)ccc3OCC)nc12 [sildenafil, 5-[2-ethoxy-5-(4-methylpiperazin-1-ylsulphonyl)phenyl]-1-methyl-3-n-propyl-1,6-dihydro-7H-pyrazolo[4,3d]pyrimidin-7-one]
effect on delayed gastric emptying ([2]; STZ-diabetic and NOD-diabetic mice, sildenafil 1 mg/kg): reverses the delayed gastric emptying; also recorded: reveres delayed gastric emptying
t½ for gastric emptying ([2]; sildenafil-treated NOD-diabetic mice): 36 min
t½ for gastric emptying ([2]; sildenafil-treated STZ-diabetic mice): 30 min

insulin
nNOS mRNA expression in pylori [3]: substantially restores
nNOS protein expression (Western blot) in intestinal regions [4]: fully reversible
nNOS protein expression (Western blot) in intestinal regions ([4]; listed as Insulin): completely reverses the loss of nNOS protein
nNOS protein expression in pyloric myenteric neurons [5]: reverse the loss of nNOS expression; also recorded: near normal levels
EFS-evoked NANC relaxation ([1]; pylori of NOD-diabetic mice after insulin treatment (1 week)): partially restores NANC relaxation
EFS-evoked NANC relaxation ([1]; pylori of STZ-diabetic mice after insulin treatment (1 week)): restores NANC relaxation
gastric emptying (20% dextrose) [2]: restored to normal
gastric emptying (20% dextrose) ([2]; listed as Insulin): reverses delayed gastric emptying
t½ of gastric emptying ([2]; STZ-diabetic mice after insulin treatment for 12 hours (subcutaneous implant), sham STZ-diabetic 60, wild-type 36): 54 min

retrodotoxin [TTX]
EFS-evoked NANC relaxation [1]: completely blocked
